Assay results reported in the NIST ThermoML archive (doi:10.1016/j.jct.2017.11.007).

Assay: mn = molality of the nth substance listed, in mol/kg
Conditions: 74.66 kPa, Liquid; for mass density: Vibrating tube method; for speed of sound: Frequency=3 MHz, Single path-length method

Cc1cc(C)nc([N-]S(=O)(=O)c2ccc(N)cc2)n1.[Na+] + O
Conditions	mass density, 293.15 K [kg/m3]	mass density, 298.15 K [kg/m3]	mass density, 303.15 K [kg/m3]	mass density, 308.15 K [kg/m3]	speed of sound, 298.15 K [m/s]	speed of sound, 303.15 K [m/s]	speed of sound, 308.15 K [m/s]
m1 = 0.00501	998.758	997.59	996.185	994.563	1497.7	1510.1	1520.7
m1 = 0.00799	999.081	997.912	996.504	994.878	1498.2	1510.6	1521.2
m1 = 0.01	999.302	998.128	996.718	995.089	1498.6	1510.9	1521.5
m1 = 0.01488	999.834	998.655	997.238	995.605	1499.4	1511.7	1522.2
m1 = 0.01983	1000.37	999.182	997.76	996.12	1500.2	1512.4	1523
m1 = 0.02501	1000.92	999.733	998.303	996.661	1501.1	1513.2	1523.7
m1 = 0.02961	1001.42	1000.22	998.79	997.14	1501.9	1514	1524.4
m1 = 0.03503	1002	1000.79	999.357	997.703	1502.8	1514.8	1525.2
m1 = 0.0401	1002.55	1001.34	999.892	998.234	1503.6	1515.6	1525.9
m1 = 0.04493	1003.07	1001.85	1000.4	998.733	1504.3	1516.3	1526.6
m1 = 0.04993	1003.61	1002.39	1000.93	999.258	1505.2	1517.1	1527.3
m1 = 0.05504	1004.16	1002.93	1001.47	999.792	1506	1517.8	1528
m1 = 0.05966	1004.66	1003.42	1001.95	1000.27	1506.8	1518.6	1528.7
